Key:
COMT in HLC [1] = target: T1, COMT in HLC (Homo sapiens, UniProt P21964); experiment: Methylation kinetics in pooled human liver cytosol (HLC); type: in vitro ADME; conditions: identified by NMR
T1 construct: Pooled human liver cytosol (HLC) from seven male donors; tissue Research Institute for Liver Diseases (Shanghai, China) Lot; QROX; host or cells: pooled human liver cytosol, seven male donors
T1 sequence (P21964 1-221 isoform P21964-2): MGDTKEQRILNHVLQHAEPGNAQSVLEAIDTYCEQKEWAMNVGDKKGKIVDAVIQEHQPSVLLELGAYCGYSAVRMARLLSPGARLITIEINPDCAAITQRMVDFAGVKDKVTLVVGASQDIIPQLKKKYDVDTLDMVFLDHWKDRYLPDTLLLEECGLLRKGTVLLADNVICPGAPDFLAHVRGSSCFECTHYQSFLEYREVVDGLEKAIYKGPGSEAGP

[2] = target: T2, recombinant human soluble COMT (S-COMT) (Homo sapiens, UniProt P21964); experiment: Methylation kinetics with recombinant human soluble COMT; type: in vitro ADME; conditions: for Clint: intrinsic clearance (Vmax/Km)
T2 construct: made in house
T2 sequence (P21964 1-221 isoform P21964-2): T1 sequence (P21964 1-221 isoform P21964-2)
Protocol: (§1) Reaction mixtures were pre-incubated at 37°C for 5 min and initiated by the addition of SAM to a final concentration of 0.4 mM. The samples were incubated for a certain period of time and the reaction was terminated by the addition of 200 µl ice-cold acetonitrile and then centrifuged at 20 000g, 4°C, for 20 min. Control incubations were performed either without human liver cytosol, or without SAM or without substrate. The supernatants were subjected to ultra-fast liquid chromatography (UFLC) coupled with a diode array detector (DAD) and an electrospray ionization (ESI) mass spectrometer (MS) analyzer.
(§2) 7,8-DHCs and their methylated conjugates were analysed by a UFLC spectrometry system (Shimadzu, Kyoto, Japan), equipped with two LC-20AD pumps, a DGU-20A3 vacuum degasser, a SIL-20ACHT auto-sampler, a CTO-20AC column oven, an SPD-M 20A DAD, a CBM-20A communications bus module, a mass detector (2010EV) with an ESI interface and a computer equipped with UFLC-MS SOLUTION v. 3.41 software. A Shimadzu ODS (75.0 × 2.0 mm, 3 µm) analytical column was used to separate 7,8-DHCs and their methylated conjugates. Column temperature was kept at 40°C. […] The methylation samples were stable over 72 h at 4°C. 7,8-DHC methylation was quantified by the standard curves of the methylated conjugates at the detector wavelength of 325 nm, which were linear from 0.01 to 10 µM (the correlation coefficient was 0.999).
(§3) For estimating kinetic parameters, 7,8-DHCs (0.1–40 µM) were incubated with pooled HLC and S-COMT. 7,8-DHCs (0.1–40 µM) were incubated with HLC or S-COMT for 5 min, using a microsomal protein concentration of 0.5 mg ml^−1 or 0.002 mg ml^−1 for HLC and S-COMT, respectively. Kinetic constants for 7,8-DHCs methylation by HLC and S-COMT were obtained by fitting the Michaelis–Menten kinetics equation (3.1) to experimental data.
(§4) For the Michaelis–Menten kinetic model, 3.1 v=Vmax×[S]/Km+[S], where v is the rate of reaction, [S] is the substrate concentration, Vmax is the maximum velocity estimate and Km is the apparent affinity constant.
(§5) All incubations were performed in duplicate. Kinetic constants were obtained using GraphPad PRISM 6 (GraphPad Software, Inc. La Jolla, CA) software.

COMT in HLC [3] = target: T1, COMT in HLC; experiment: Methylation kinetics in pooled human liver cytosol (HLC); type: in vitro ADME; conditions: for Clint: intrinsic clearance (Vmax/Km); for COMT substrate in human liver cytosol: human liver cytosol with SAM
Protocol: as §1, §2, §3, §4, §5

[4] = after administration in rats; cited from earlier work
human hepatocytes = conditions: cited from earlier work

Row | methylated metabolite identified (COMT in HLC [1]) | Clint [2] [µL/min/mg] | Clint (COMT in HLC [3]; HLC) [µL/min/mg] | COMT substrate in human liver cytosol (COMT in HLC [3]) | SMILES | half-life [4] [min] | Vmax ([2]; best-fit value ± s.e.) [nmol/min/mg] | Vmax (COMT in HLC [3]; HLC, best-fit value ± s.e.) [nmol/min/mg] | methyl-derived metabolites (human hepatocytes) [%]
1 | 8-O-methylated 7,8-DHC | 31.1 | 0.017 | COMT substrates | O=C(O)Cc1cc(=O)oc2c(O)c(O)ccc12 [4-ADPN, 4-acetic acid daphnetin] |  |  |  | 
2 | 8-O-methylated 7,8-DHC | 154.8 | 0.70 | COMT substrates | Cc1cc(=O)oc2c(O)c(O)ccc12 [4-MDPN, 4-methyl daphnetin] |  |  |  | 
3 | 8-O-methylated 7,8-DHC | 424.0 | 1.91 | COMT substrates | O=c1cc(-c2ccccc2)c2ccc(O)c(O)c2o1 [4-PDPN, 4-phenyl daphnetin] |  |  |  | 

Row | SMILES | methylated metabolite identified (COMT in HLC [1]) | Clint [2] [µL/min/mg] | Clint (COMT in HLC [3]; HLC) [µL/min/mg] | COMT substrate in human liver cytosol (COMT in HLC [3]) | half-life [4] [min] | Vmax ([2]; best-fit value ± s.e.) [nmol/min/mg] | Vmax (COMT in HLC [3]; HLC, best-fit value ± s.e.) [nmol/min/mg] | methyl-derived metabolites (human hepatocytes) [%]
4 | O=c1ccc2ccc(O)c(O)c2o1 [daphnetin, 7,8-dihydroxycoumarin] | 8-O-methylated 7,8-DHC | 169.5 | 0.52 | COMT substrates | 15 | 81.4 ± 2.4 | 0.11 ± 0.0034 | 37.3

Source: publication PMC5792912 (Royal Society Open Science, 2018)
